Experiments:
local bone formation = conditions: subcutaneous administration of PTH; NPL 2; cited from earlier work
[1] = test system: standardized full-thickness bone defect of the calvarium; assay: Test Example 1: rat calvarium bone defect, OCP or β-TCP collagen composite + teriparatide subcutaneous injection; assay type: in vivo, Male Wistar rats
Text: Male Wistar rats (12 weeks old) were each intraperitoneally anesthetized, and a skin incision and a periosteal incision were made in the calvarium part to expose the calvarium. A standardized full-thickness bone defect (diameter: about 9 mm), for which spontaneous recovery could not be expected, was created. Then, one OCP/collagen composite disc produced in Production Example 2 or one β-TCP/collagen composite disc produced in Production Example 3 was implanted therein. As the control, rats in which only a bone defect was created, and no sample was implanted (untreated group) were prepared. After the sample was implanted, the periosteum and skin were sutured, and the surgery was completed. […] In the rats of the teriparatide subcutaneous injection group, 10 μg/kg of the teriparatide prepared in Production Example 5 was subcutaneously injected immediately after surgery and every day thereafter. Subcutaneous injection was performed in such a manner that the thawed teriparatide solution was sucked by a 1-mL syringe (27 G injection needle), the back skin was sterilized with a dilute Hibitane solution, and then a considerable amount of teriparatide solution was injected subcutaneously in the back. The observation period after surgery was 8 weeks for each group, and 5 rats were used in each period. […] Similarly, after CT photography 8 weeks after surgery, the rats were euthanized under anesthesia with an excess amount of pentobarbital. […] Then, tissue sections (thickness: […]) cut in the frontal plane were prepared, and a histological search was performed by hematoxylin-eosin staining. Further, using the plural tissue sections corresponding to the center of the defect of each sample, the ratio of new bone (n-Bone %) in the created defect was examined by histological quantification. Variance analysis, etc., were conducted using the average value and standard deviation of n-Bone % in each group, and a significance test was conducted. The significance level was set at 5%.

CC[C@H](C)[C@H](NC(=O)[C@H](CCC(=O)O)NC(=O)[C@H](CO)NC(=O)[C@@H](NC(=O)[C@@H](N)CO)C(C)C)C(=O)N[C@@H](CCC(N)=O)C(=O)N[C@@H](CC(C)C)C(=O)N[C@@H](CCSC)C(=O)N[C@@H](Cc1cnc[nH]1)C(=O)N[C@@H](CC(N)=O)C(=O)N[C@@H](CC(C)C)C(=O)NCC(=O)N[C@@H](CCCCN)C(=O)N[C@@H](Cc1cnc[nH]1)C(=O)N[C@@H](CC(C)C)C(=O)N[C@@H](CC(N)=O)C(=O)N[C@@H](CO)C(=O)N[C@@H](CCSC)C(=O)N[C@@H](CCC(=O)O)C(=O)N[C@@H](CCCN=C(N)N)C(=O)N[C@H](C(=O)N[C@@H](CCC(=O)O)C(=O)N[C@@H](Cc1c[nH]c2ccccc12)C(=O)N[C@@H](CC(C)C)C(=O)N[C@@H](CCCN=C(N)N)C(=O)N[C@@H](CCCCN)C(=O)N[C@@H](CCCCN)C(=O)N[C@@H](CC(C)C)C(=O)N[C@@H](CCC(N)=O)C(=O)N[C@@H](CC(=O)O)C(=O)N[C@H](C(=O)N[C@@H](Cc1cnc[nH]1)C(=O)N[C@@H](CC(N)=O)C(=O)N[C@@H](Cc1ccccc1)C(=O)O)C(C)C)C(C)C [teriparatide]
local bone formation (local bone formation): significantly promoted | ratio of new bone (n-Bone %) in the defect ([1]; 8 weeks after surgery, PTH groups: teriparatide 10 μg/kg subcutaneously every day, FIG. 5): 31.1±10.2% | X-ray photographs of the bone defect sites, living state (radiopaque image) ([1]; FIG. 1, PTH groups: teriparatide 10 μg/kg s.c. daily): radiopaque images in the defects were equally scarce | X-ray photographs of the calvarium and the surrounding tissue (radiopaque image) ([1]; FIG. 2, PTH groups: teriparatide 10 μg/kg s.c. daily): their thickness was thinner than that of the existing bone | stained pathological specimens, low-magnification (×1.25) ([1]; FIG. 3, 8 weeks after surgery, hematoxylin-eosin): thin bone tissue extending from the defect margins | stained pathological specimens, high-magnification ([1]; FIG. 4, 8 weeks after surgery, hematoxylin-eosin): thin new bone extended from the defect margins | new bone formation (summary of FIGS. 1 to 5) ([1]; teriparatide 10 μg/kg s.c. daily, 8 weeks): new bone formation was not observed
